Source: US6525055B1, “Tricyclic phthalazine derivatives as phosphodiesterase 4 inhibitors” (Zambon Group S.p.A., priority 1998, dated 2003)

Target: PDE 4 enzyme
Assay: PDE 4 enzyme inhibition (SPA)
Format: biochemical
Conditions: PDE 4 purified from human PMNs, cAMP 1 μM, 40 minutes at 30° C.
Description: Evaluation of the PDE 4 Enzyme Inhibition a) Purification of Human Polymorphonucleate Leukocytes
The polymorphonucleate leukocytes (PMNs) were isolated from peripheral blood of healthy volunteers according to what described by Boyum A., Scand. J. Immunol., 1976, 5th suppl., 9). Shortly, the isolation of the PMNs was effected by Ficoll-Paque gradient centrifugation followed by sedimentation on dextrane and the erythrocyte contamination was eliminated by hypotonic lysis. […]
b) PDE 4 Enzyme Purification
The human PMNs were re-suspended in TRIS/HCl buffer (10 mM pH 7.8) containing MgCl2 (5 mM), EGTA (4 mM), mercaptoethanol (5 mM), TRlTON-X100 (1%), pepstatin A (1 μM), PMSF (100 μM) and leupeptin (1 μM), and homogenised by Polytron. […]
The enzyme activity was evaluated with an Amersham kit based on the SPA (Scintillation Proximity Assay) technique. […] The radioactivity due to the particles was measured in a […]. The results are expressed as percent activity versus the control present in each experiment. The IC50 values were calculated over 9 equidistant concentrations in logarithmic scale using a 4-parameters logistic function by software.

COc1ccc2c(Cc3c(Cl)cncc3Cl)nn3c(C)nnc3c2c1 [Compound 2, 6-(3,5-Dichloro-pyridin-4-ylmethyl)-9-methoxy-3-methyl-[1,2,4]-triazole-[3,4-a]-phthalazine]
IC50: 207 nM
